Results from patent US10760052B2, “Method of inhibiting tau phosphorylation” (priority 2012, dated 2020).

Tests used:
[1] = test system: α7nAChR (Aβ42-α7nAChR interaction); assay: Aβ42 affinity for α7nAChR in SK-N-MC cells; assay type: binding, human
Source text: Data are means±SEM. n=11 for postmortem control tissue; n=6 for SK-N-MC cells.

α7nAChR-FLNA complex [2] = molecular target: T1, α7nAChR-FLNA complex (Rattus norvegicus, UniProt A0A8I5ZV49); assay: Aβ42-induced α7nAChR-FLNA association in rat frontal cortical synaptosomes (co-immunoprecipitation/Western blot); assay type: cell-based
T1 construct: from tissue; host or cells: rat frontal cortex synaptosomes
T1 sequence (A0A8I5ZV49 entry or part of it, one chain of several): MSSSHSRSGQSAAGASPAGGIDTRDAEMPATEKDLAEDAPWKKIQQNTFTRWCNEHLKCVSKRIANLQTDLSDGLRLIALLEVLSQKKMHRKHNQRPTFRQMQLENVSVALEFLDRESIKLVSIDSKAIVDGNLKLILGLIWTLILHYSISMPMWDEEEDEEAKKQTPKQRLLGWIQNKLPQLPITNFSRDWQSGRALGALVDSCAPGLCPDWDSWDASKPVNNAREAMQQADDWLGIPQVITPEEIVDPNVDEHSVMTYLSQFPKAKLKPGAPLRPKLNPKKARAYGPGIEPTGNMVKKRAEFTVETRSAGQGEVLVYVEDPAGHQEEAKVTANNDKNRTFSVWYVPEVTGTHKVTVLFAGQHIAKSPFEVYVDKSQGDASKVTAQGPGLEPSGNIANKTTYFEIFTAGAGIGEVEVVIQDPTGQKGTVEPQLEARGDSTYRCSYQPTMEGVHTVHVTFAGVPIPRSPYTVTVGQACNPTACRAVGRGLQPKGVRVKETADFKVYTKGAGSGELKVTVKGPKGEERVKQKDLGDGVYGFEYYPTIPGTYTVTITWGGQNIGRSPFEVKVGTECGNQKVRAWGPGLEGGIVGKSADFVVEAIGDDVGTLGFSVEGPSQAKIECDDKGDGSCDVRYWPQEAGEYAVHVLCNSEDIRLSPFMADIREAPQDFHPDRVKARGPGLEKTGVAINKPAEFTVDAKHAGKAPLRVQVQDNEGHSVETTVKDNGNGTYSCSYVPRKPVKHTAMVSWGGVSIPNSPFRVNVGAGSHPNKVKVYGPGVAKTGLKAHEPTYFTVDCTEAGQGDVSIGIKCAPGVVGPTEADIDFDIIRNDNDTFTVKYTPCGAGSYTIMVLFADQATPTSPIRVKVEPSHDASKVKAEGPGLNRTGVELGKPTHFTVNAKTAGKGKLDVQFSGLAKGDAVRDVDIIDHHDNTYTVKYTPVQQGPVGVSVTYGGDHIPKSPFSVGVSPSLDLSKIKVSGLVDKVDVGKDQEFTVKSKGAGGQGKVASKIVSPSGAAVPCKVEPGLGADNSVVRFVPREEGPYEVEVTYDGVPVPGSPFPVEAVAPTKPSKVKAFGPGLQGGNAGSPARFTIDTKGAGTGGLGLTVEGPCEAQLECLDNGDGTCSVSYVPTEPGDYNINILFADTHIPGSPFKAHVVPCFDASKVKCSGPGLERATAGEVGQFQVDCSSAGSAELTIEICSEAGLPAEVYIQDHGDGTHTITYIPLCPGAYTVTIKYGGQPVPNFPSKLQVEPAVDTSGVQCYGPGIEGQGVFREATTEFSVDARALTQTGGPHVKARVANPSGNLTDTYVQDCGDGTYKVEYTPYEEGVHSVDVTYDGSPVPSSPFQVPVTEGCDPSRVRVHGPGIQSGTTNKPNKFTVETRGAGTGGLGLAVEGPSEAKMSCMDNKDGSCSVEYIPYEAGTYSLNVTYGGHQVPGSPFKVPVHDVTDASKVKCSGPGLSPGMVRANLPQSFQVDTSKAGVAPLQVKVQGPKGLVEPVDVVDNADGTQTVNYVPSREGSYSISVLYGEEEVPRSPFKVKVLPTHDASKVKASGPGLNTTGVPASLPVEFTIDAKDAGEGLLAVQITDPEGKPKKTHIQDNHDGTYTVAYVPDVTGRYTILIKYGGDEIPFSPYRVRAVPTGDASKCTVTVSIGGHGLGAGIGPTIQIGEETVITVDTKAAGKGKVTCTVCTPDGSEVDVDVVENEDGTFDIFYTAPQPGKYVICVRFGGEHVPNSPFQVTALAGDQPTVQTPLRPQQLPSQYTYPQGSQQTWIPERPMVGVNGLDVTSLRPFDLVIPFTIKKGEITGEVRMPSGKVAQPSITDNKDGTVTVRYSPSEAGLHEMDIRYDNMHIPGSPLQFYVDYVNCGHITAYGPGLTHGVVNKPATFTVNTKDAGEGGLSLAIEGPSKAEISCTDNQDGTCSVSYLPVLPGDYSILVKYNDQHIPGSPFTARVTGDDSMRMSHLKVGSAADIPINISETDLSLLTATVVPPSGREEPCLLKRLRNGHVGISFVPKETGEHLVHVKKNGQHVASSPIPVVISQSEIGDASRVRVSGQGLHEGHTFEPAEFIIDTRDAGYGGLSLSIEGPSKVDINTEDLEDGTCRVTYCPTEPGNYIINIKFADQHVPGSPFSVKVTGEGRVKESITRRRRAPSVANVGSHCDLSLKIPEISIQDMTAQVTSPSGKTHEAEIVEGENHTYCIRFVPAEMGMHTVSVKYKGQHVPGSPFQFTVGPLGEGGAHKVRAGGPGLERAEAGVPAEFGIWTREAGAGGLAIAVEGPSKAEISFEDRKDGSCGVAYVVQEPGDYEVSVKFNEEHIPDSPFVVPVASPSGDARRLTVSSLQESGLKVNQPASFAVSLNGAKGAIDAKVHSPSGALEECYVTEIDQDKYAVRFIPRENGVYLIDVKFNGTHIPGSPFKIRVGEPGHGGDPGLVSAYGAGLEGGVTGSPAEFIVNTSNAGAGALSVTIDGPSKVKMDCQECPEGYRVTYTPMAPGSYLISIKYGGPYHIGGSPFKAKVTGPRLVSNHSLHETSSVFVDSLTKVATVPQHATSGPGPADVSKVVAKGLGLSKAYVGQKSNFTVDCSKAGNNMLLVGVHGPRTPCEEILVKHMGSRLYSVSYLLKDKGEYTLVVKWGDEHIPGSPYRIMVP
Source text: The α7nAChR-FLNA complexes in the solubilized synaptosomes were immunoprecipitated with immobilized anti-FLNA and the α7nAChR and FLNA levels in the anti-FLNA immunoprecipitates determined by Western blotting (FIG. 2A) and quantified by densitometry (FIG. 2B). n=3. […] The letter designation “M” that accompanies many of the “C-series” compounds is omitted from FIG. 2, the remaining figures and most discussions of the figures and compounds hereinafter for ease in expression. Structural formulas of the compounds used in this and the other figures are provided hereinafter. […]

FLNA-α7nAChR association = assay: FLNA association with α7nAChR in organotypic frontocortical slice cultures; assay type: cell-based, rat; details: 100 nM Aβ42, 16 hours, compound added simultaneously
Description: (§1) Tissue was harvested and solubilized, and a specific antibody against FLNA was used to immunoprecipitate FLNA and associated proteins. The FLNA immunoprecipitate was size-fractionated using SDS-PAGE, transferred and probed with specific antibodies directed against each of the following receptors: α7nAChR, TLR4, IR and MOR.
(§2) Rat brain slice organotypic culture methods were modified from those published previously. [Adamchik et al., Brain Res Brain Res Protoc 5:153-158 (2000).] FCX slices ([…]) were transferred to sterile, porous Millicell-CM inserts (0.4 μm). Each culture insert unit contained two brain slices and was placed into individual wells of a 12-well culture tray in 2 ml medium: 50% MEM with Earl's salts, 2 mM L-glutamine, 25% Earl's balanced salt solution, 6.5 g/l D-glucose, 20% fetal bovine serum (FBS), 5% horse serum, 25 mM HEPES buffer, pH 7.2, and […]. […]
(§3) The level of FLNA-associated α7nAChRs was determined using a co-immunoprecipitation/Western blotting method as described previously. […] The levels of FLNA-associated α7nAChR, TLR4, IR and MOR were assessed by Western blotting using specific antibodies directed against the respective proteins and the blot stripped and re-probed for FLNA for immunoprecipitation/loading control.

FLNA-TLR4 association = assay: FLNA association with TLR4 in organotypic frontocortical slice cultures; assay type: cell-based, rat; details: 100 nM Aβ42, 16 hours, compound added simultaneously
Description: as §1, §2, §3

α7nAChR [3] = assay type: cell-based, rat
α7nAChR-FLNA complex [4] = molecular target: T2, α7nAChR-FLNA complex (Mus musculus, UniProt Q8BTM8); assay: ICV Aβ42 infusion mouse model: FLNA association with α7nAChR; assay type: in vivo; details: 10 mg/kg twice daily; prefrontal cortex and hippocampus
T2 construct: from tissue; host or cells: synaptosomes from prefrontal cortex and hippocampus of treated E129 mice
Description: . The anti-FLNA immunocomplexes were obtained by centrifugation, washed and dissociated using antigen elution buffer. […] The levels of FLNA-associated α7nAChRs and TLR4s were assessed by Western blotting and the blot stripped and re-probed for FLNA for immunoprecipitation/loading control.

NMDAR [5] = assay: ICV Aβ42 infusion mouse model: NMDAR signaling molecules; assay type: in vivo; details: 10 mg/kg twice daily
Description: NMDAR signaling and their interaction with synaptic anchoring protein, PSD-95 were compared in synaptosomes from treated mice. NMDAR activation and signaling was initiated by incubation of 6 slices with either 0.3 mM Mg^2+ containing KR (LMKR; basal) or LMKR containing 10 μM NMDA and 1 μM glycine at 37° C. for 30 minutes.
Ligand stimulation was terminated by the addition of 1 ml of ice-cold Ca^2+-free K-R containing mixture of protein phosphatase inhibitors, 0.5 mM EGTA and 0.1 mM EDTA. After harvesting, tissues were briefly centrifuged and homogenized in 0.25 ml of ice-cold immunoprecipitation buffer. The homogenates were centrifuged at 1000×g for 5 minutes (4° C.) and the supernatant (post-mitochondrial fraction) was sonicated for 10 seconds on ice.
The resultant lysates were cleared by centrifugation at 50,000×g for 5 minutes and diluted with 0.75 ml of immunoprecipitation buffer. Protein concentrations were measured by Bradford method (Bio-Rad).
To determine the NMDARs association with PSD-95 as well as NMDAR signaling, the levels of NMDAR subunits, PSD-95 and NMDAR-associated signaling molecules were measured in anti-NR1 immunoprecipitates. In these studies, brain tissue lysates (100 μg) were immunoprecipitated overnight (about 18 hours) at 4° C. with 2 μg of immobilized anti-NR1 onto covalently conjugated protein A-agarose beads (Pierce-ENDOGEN). […]

TLR4-FLNA complex = molecular target: T3, TLR4-FLNA complex (Homo sapiens, UniProt P21333); assay: Postmortem human frontal cortex: TLR4-FLNA association; assay type: cell-based; details: AD and Aβ42-treated control tissue; 0.1 or 1 nM
T3 construct: from tissue; host or cells: postmortem frontal cortex slices / synaptosomes (AD and control subjects)
Description: Postmortem frontal cortex tissues were gradually thawed (from −80° C. to −20° C.) and were sliced using a chilled McIlwain tissue chopper (200 μm×200 μm×3 mm). […] Following two additional washes with 1 ml of ice-cold K-R, brain slices were suspended in 1 ml of K-R.
Incubation continued for 1 hour in the dark to minimize light destruction of the test agents. […] Reaction was terminated by the addition of 1.5 ml of ice-cold Ca^2+-free K-R. Tissue slices were harvested by a brief centrifugation and used as the tissue sources for various assays.

α7nAChR [6] = assay type: cell-based, human; details: AD and Aβ42-treated control brain slices
NMDAR [7] = assay type: cell-based, human; details: AD and Aβ42-treated control brain slices

With `CN1CCC2(CC1)NCC(=O)N2Cc1ccccc1` [Compound C0105] the “Reduction of Aβ42 binding affinity for α7nAChR” value ([1]; fresh SK-N-MC cells, n=6) was 10,000 fold, the Kd ([1]; read-out: Aβ42 binding affinity for α7nAChR with Compound C0105, SK-N-MC cells) was 1 nM and the “α7nAChR-FLNA association (ratio α7nAChR/FLNA)” value (α7nAChR-FLNA complex [2]; 1 or 10 nM compound, simultaneously or 10 minutes prior to Aβ42 (0.1 μM)) was “statistically different from Aβ42 alone”. For the same compound, the α7nAChR-FLNA association (α7nAChR-FLNA complex [2]; simultaneous administration with Aβ42) was “markedly reduced this coupling”, the “Aβ42-induced increase in FLNA-α7nAChR association” value (FLNA-α7nAChR association) was “reduced the Aβ42-induced increase in FLNA-α7nAChR association at 0.1, 1 and 10 nM” and the “Aβ42-induced increase in FLNA-TLR4 association” value (FLNA-TLR4 association) was “reduced the increase in FLNA-TLR4 at 1 and 10 nM”. For the same compound, the “Aβ42-induced impairment in α7nAChR function (calcium influx after PNU282987)” value (α7nAChR [3]) was “fully restoring function”, the “Aβ42-induced increase in FLNA association with α7nAChR” value (α7nAChR-FLNA complex [4]) was “reduced Aβ42-induced increases in FLNA associations with both α7nAChR and TLR4” and the “Levels of NMDAR signaling molecules co-immunoprecipitating with NR-1” value (NMDAR [5]) was “normalized”. The “FLNA association with TLR4” value (TLR4-FLNA complex) was “reduces Aβ42-induced FLNA association with α7nAChR and TLR4”, the “Functioning of α7nAChR (calcium influx after receptor stimulation)” value (α7nAChR [6]) was “preserves functioning” and the “Functioning of NMDAR (calcium influx after receptor stimulation)” value (NMDAR [7]) was “preserves functioning”.
